In the OligoGym collection:
Where “and” joins values, the source holds several entries; their conditions need not be identical. Equal values may be shown once. After the bases stand the sugars from the 5' end (letter, count) and the backbone: PS all phosphorothioate, else s phosphorothioate and o phosphodiester by linkage. Methylation of C is not given here. e = 2'-O-(2-methoxyethyl) (MOE); k = constrained ethyl (cEt); d = 2'-deoxy (DNA)

Target: IRF4
Conditions: ASO

| Sequence | target mRNA inhibition (MM.1R, 1 µM) | target mRNA inhibition (SK-MEL-28, 4 µM) [%] | also measured |
| --- | --- | --- | --- |
| CTATAGTGTTCCAGGA (sugars k2 d9 e3 k2, PS) | 34% | – | – |
| CAAGATCGAGCGGTGA (sugars k3 d10 k3, PS) | – | 38 | – |
| CATCCTGCTTCCAGTG (sugars k3 d10 k3, PS) | – | 30 | – |
| TACACCTACACAGGCT (sugars k3 d10 k3, PS) | – | 19 | – |
| TCTGATCCGGACTCTC (sugars k3 d10 k3, PS) | – | 41 | – |
| GCTTGAGGTTTTCCTA (sugars k3 d10 k3, PS) | – | 77 | – |
| AGTTCATGTAAAGTCT (sugars k2 d9 e3 k2, PS) | 41% and 30% | – | – |
| GCAAAACGCAGAGCCA (sugars k3 d10 k3, PS) | – | 57 | – |
| CCCACACCAGCCCGGG (sugars k3 d10 k3, PS) | – | -6 | – |
| GGCTAAACCTGGCACC (sugars k3 d10 k3, PS) | – | 40 | – |
| AGTACAAACTAAATTC (sugars k3 d10 k3, PS) | – | 24 | – |
| GCTAAACCCAAAATAC (sugars k3 d10 k3, PS) | – | 4 | – |
| AAGGAGGTAGTGGCCC (sugars k3 d10 k3, PS) | – | 47 | – |
| AAGTGGACCCCATTGC (sugars k3 d10 k3, PS) | – | 31 | – |
| GTTCAGTGTGTTGACC (sugars k3 d10 k3, PS) | 30% | – | – |
| CGTGTGCTTGCCAAGC (sugars k3 d10 k3, PS) | 67% and 66% and 56% | – | target mRNA inhibition (MM.1R, 0.0625 µM): -3%; target mRNA inhibition (MM.1R, 0.25 µM): 31%; target mRNA inhibition (MM.1R, 4 µM): 81% |
| GACAGATGACATGCTT (sugars k3 d10 k3, PS) | – | 9 | – |
| AAGCATTTTATCATCC (sugars kkkddddddddkekek, PS) | 10% | – | – |
| TGCTTGAGGTTTTCCT (sugars kkdddddddddkdkdk, PS) | 45% | – | – |
| CTCTCCAGGTGGCTCA (sugars k3 d10 k3, PS) | – | 13 | – |
| GTCACGCAATGGCAAA (sugars k3 d10 k3, PS) | -2% | – | – |
| CTCTATAGTGTTCCAG (sugars kddddddddddkekek, PS) | 24% | – | – |
| GAAGTACGAGCACATG (sugars k3 d10 k3, PS) | 18% | – | – |

| Sequence | target mRNA inhibition (MM.1R, 1 µM) | target mRNA inhibition (SK-MEL-28, 4 µM) [%] | also measured |
| --- | --- | --- | --- |
| GGGCCCCGTGAAACAG (sugars k3 d10 k3, PS) | – | 33 | – |
| CAGCCGAAGCATTTTA (sugars k3 d10 k3, PS) | 0% | – | – |
| CACAAGCATAAAAGGT (sugars k3 d10 k3, PS) | – | 26 | – |
| CAGTTGTAAATGAGTC (sugars kkdddddddddkekek, PS) | 81% | – | target mRNA inhibition (H929, 0.00067 µM): 22%; target mRNA inhibition (H929, 0.002 µM): 41%; target mRNA inhibition (H929, 0.00667 µM): 67%; target mRNA inhibition (H929, 0.02 µM): 74%; target mRNA inhibition (H929, 0.04 µM): 40%; target mRNA inhibition (KMS11, 0.2 µM): 83% and 93%; target mRNA inhibition (MM.1R, 0.074 µM): 28%; target mRNA inhibition (MM.1R, 0.222 µM): 55%; target mRNA inhibition (MM.1R, 0.666 µM): 78%; target mRNA inhibition (MM.1R, 2 µM): 91% |
| CTGCTTGAGGTTTTCC (sugars kkkdddddddddkeke, PS) | 50% | – | – |
| AATGATGGCAGTCTAC (sugars k3 d10 k3, PS) | – | 33 | – |
| CCGGAAGAAGGCACCT (sugars k3 d10 k3, PS) | – | 17 | – |
| ACAGAAGGGCAACAGT (sugars k3 d10 k3, PS) | – | 43 | – |
| TCCCACTGTCACTATG (sugars k3 d10 k3, PS) | – | 15 | – |
| TCCGCTTGGAGAATTA (sugars k3 d10 k3, PS) | – | 13 | – |
| CTCCGGAGTCAGTGCT (sugars k3 d10 k3, PS) | 1% | – | – |
| CACAAGTGGCCTTCCT (sugars k3 d10 k3, PS) | – | 45 | – |
| CAAGTGTCTAAAGTCC (sugars kkdddddddddkekek, PS) | 15% and 6% | – | – |
| GAGCTCTTCCAGATCC (sugars k3 d10 k3, PS) | – | 5 | – |
| CATTGGACCCACGAAG (sugars k3 d10 k3, PS) | – | 28 | – |
| GTGCAAGCCTCATTCA (sugars k3 d10 k3, PS) | 19% | – | – |
| TGTGCTTGCCAAGCCT (sugars kkdddddddddkekek, PS) | 2% and 18% | – | – |
| CAGTGGTGGCCGCGGG (sugars k3 d10 k3, PS) | – | 27 | – |
| GGCTACAGGCACGGCT (sugars k3 d10 k3, PS) | – | 42 | – |
| GGGATTCCGCGCGCAG (sugars k3 d10 k3, PS) | – | 14 | – |
| GTAGGACAGACAAAAA (sugars k3 d10 k3, PS) | – | 23 | – |
| CGGCAGACGGGAGCCC (sugars k3 d10 k3, PS) | – | 12 | – |
| TAATTACTGCTTGAGG (sugars k3 d10 k3, PS) | 62% | – | target mRNA inhibition (MM.1R, 0.074 µM): 9%; target mRNA inhibition (MM.1R, 0.222 µM): 31%; target mRNA inhibition (MM.1R, 0.666 µM): 54%; target mRNA inhibition (MM.1R, 2 µM): 77% |
